Laboratory results as given in PMC9071858, “Comparative Pharmacokinetics of Seven Major Compounds in Normal and Atherosclerosis Mice after Oral Administration of Simiao Yong'an Decoction” (Evidence-based Complementary and Alternative Medicine : eCAM, 2022).

Experiments:
[1] = Stability of analytes in QC plasma samples; format: in vitro ADME, mouse; conditions: n = 5
Protocol: All solutions were stored at 4°C.
Stability was evaluated as five replicate QC samples at two concentration levels (see Table 5).

[2] = Pharmacokinetic study in normal control (NC) mice after oral administration of SMYAD; format: in vivo, mouse; conditions: NC mice, plasma, SMYAD intragastric 35 g/kg/d for seven days, mean ± SD, n = 5; for AUC(0-t) / AUC(0-inf) / Cmax / half-life / Tmax: male, C57BL/6J, mouse, po, 35 g/kg/day; for AUC(0-t): read-out: AUC0–t; for AUC(0-inf): read-out: AUC0–∞; for Cmax: read-out: C max; for half-life: read-out: t 1/2 (converted); for Tmax: read-out: t max
Protocol: (§1) Male C57BL/6J mice and ApoE^−/− mice on a C57BL/6 background (7 weeks old, 18–22 g) were purchased from Beijing Vital River Laboratory Animal Technology Co., Ltd. (Beijing, China, Certificate No.: SCXK (Jing) 2016-0006). All the mice were kept in an SPF animal house (Dongzhimen Hospital Affiliated to Beijing University of Chinese Medicine, Certificate No.: SYXK (Jing) 2015-0001) with food and water freely available, 12 h light/dark, and environmental conditions of 22°C–24°C, 50% relative humidity. All protocols of animal experiments were performed in accordance with the National Guidelines for Laboratory Animal Welfare and were approved by the Animal Ethics Committee of Beijing University of Chinese Medicine (NO. BUCM-4-2015071701-3001). High-fat feeding (containing 15% fat and 0.25% cholesterol) was provided by Beijing HFK bioscience CO., LTD. (Beijing, China, Certificate No.: SCXK (Jing) 2014-0018).
(§2) After successful induction of AS model, SMYAD was administered to NC and AS mice by intragastric gavage at the crude drug dose of 35 g/kg/d for seven days. Blood samples were collected from each mouse in heparinized tubes via the postorbital venous plexus veins at 0, 0.25, 0.5, 1, 2, 4, 6, 8, 10, 12, 18, and 24 h after seven days of drug administration. Then blood samples were immediately centrifuged at 3500 rpm at 4°C for 10 min and the plasma was stored at −80°C until use.
(§3) Each plasma sample (100 μL) was mixed with a threefold volume of methanol and 25 μL IS in a 1.5 mL EP tube. Then the mixture was vortexed for 100 seconds and centrifuged at 12,000 rpm for 10 min at 4°C. The supernatant was transferred to another EP tube and evaporated to dryness under a nitrogen vacuum. The residue was reconstituted with 100 μL of 50% methanol and centrifuged at 15,000 rpm for 15 min. Then the supernatant was transferred to sample vials for the LC-MS analysis.
(§4) A Vanquish UHPLC™ system (Thermo Fisher Scientific Inc., USA) was used for the analysis. Samples were separated on an Atlantis T3 column (4.6 mm × 150 mm, 3 μm; Waters, USA). The column temperature was 40°C. The mobile phase, at 0.4 mL/min, consisted of water containing 0.1% formic acid (v/v, A) and methanol (B). The quantitative analysis gradient program was as follows: 0-1 min, 0 B; 1–6 min, 0–100% B; 6–12 min, 100% B; 12–12.1 min, 100%-0 B; 12.1–15 min, 0 B. The injection volume was 5 μL.
(§5) The mass spectrometer Q Exactive HF-X (Thermo Fisher Scientific Inc., USA) system was connected to the UHPLC system via heated electrospray ionization (HESI) and controlled by Xcalibur 4.2 software (Thermo Fisher) that was used for data collection and analysis. The mass spectrometer was operated in a negative ionization mode. The MS parameters were set as follows: probe heater temperature, 350°C; capillary temperature: 320°C; sheath gas (N2) flow rate: 30 arbs; auxiliary gas (N2) flow rate: 10 arbs; spray voltage: 3.2 kV (negative); S-Lens RF level: 55 V; scan mode: full MS (resolution 12000); scan range: m/z 150–1500. The most abundant ions in the spectra were selected for sensitive quantitation ([M-H]^−of chlorogenic acid, angoroside C, liquiritin, isoliquiritigenin, and IS, [M + COOH]^− of harpagide, swertiamarin, and sweroside).
The pharmacokinetic parameters, including maximum plasma concentration (Cmax), time corresponding to Cmax (Tmax), terminal elimination half-life (T1/2), area under plasma concentration-time curve (AUC0–t) and area under the plasma concentration-time curve from 0 to infinity time (AUC0–∞), apparent volume of distribution (Vz/F) and clearance (CLz/F), were calculated using the noncompartment model in DAS 2.0 software package (Shanghai, China). GraphPad prism 6.02 (GraphPad Software, USA) was used in the statistical analysis. All values are expressed as mean ± standard error. For the pharmacokinetic parameter values of the NC and AS groups, Student's t-test was employed for data comparisons. P values <0.05 were considered statistically significant.

[3] = Pharmacokinetic study in atherosclerosis (AS) model ApoE−/− mice after oral administration of SMYAD; format: in vivo, mouse; conditions: AS mice, plasma, SMYAD intragastric 35 g/kg/d for seven days, mean ± SD, n = 5; for AUC(0-t) / AUC(0-inf) / Cmax / half-life / Tmax: male, ApoE−/− on a C57BL/6 background, mouse, po, 35 g/kg/day; for AUC(0-t): read-out: AUC0–t; for AUC(0-inf): read-out: AUC0–∞; for Cmax: read-out: C max; for half-life: read-out: t 1/2 (converted); for Tmax: read-out: t max
Protocol: as §1
The AS model was established by a high-fat diet and perivascular carotid collar placement (PCCP) surgery in the ApoE^−/− mice. After a 7-day adaptive feeding, the mice were given a high-fat diet for 2 weeks; before anesthesia, all ApoE^−/− mice were fasted for 12 hours. During the surgery, the right common carotid artery was exposed, and a silicone cannula (length: 2.5 mm, inner diameter: 0.3 mm) was fixed around the carotid artery (external diameter: about 0.5 mm). Penicillin was injected intraperitoneally for 3 days after surgery to prevent infection. High-fat diet continued for 8 weeks after surgery to establish AS model. Biochemical assays and hematoxylin and eosin (HE) staining were used to evaluate whether AS model was successfully established.
as §2, §3, §4
as §5, with “sweroside). […]” for “sweroside).”

[4] = high QC level (600 harpagide, 800 chlorogenic acid, 4800 swertiamarin, 1000 sweroside, 200 others ng/ml)
[5] = low QC level ([…] harpagide, 51.2 chlorogenic acid, 307.2 swertiamarin, 64 sweroside, 12.8 others ng/ml)

| Freeze-thaw stability 3 freeze-thaw cycles Accuracy RE [1, 4] [%] | Freeze-thaw stability 3 freeze-thaw cycles Calc. conc. [1, 4] [ng/mL] | Long-term stability −20°C for 30 d Accuracy RE [1, 4] [%] | Long-term stability −20°C for 30 d Calc. conc. [1, 4] [ng/mL] | Postpreparative stability 24 h in the autosampler (4°C) Accuracy RE [1, 4] [%] | Postpreparative stability 24 h in the autosampler (4°C) Calc. conc. [1, 4] [ng/mL] | Short-term stability 24 h in room temperature (20°C) Accuracy RE [1, 4] [%] | Short-term stability 24 h in room temperature (20°C) Calc. conc. [1, 4] [ng/mL] | Freeze-thaw stability 3 freeze-thaw cycles Accuracy RE [1, 5] [%] | Freeze-thaw stability 3 freeze-thaw cycles Calc. conc. [1, 5] [ng/mL] | Long-term stability −20°C for 30 d Accuracy RE [1, 5] [%] | Long-term stability −20°C for 30 d Calc. conc. [1, 5] [ng/mL] | Postpreparative stability 24 h in the autosampler (4°C) Accuracy RE [1, 5] [%] | Postpreparative stability 24 h in the autosampler (4°C) Calc. conc. [1, 5] [ng/mL] | Short-term stability 24 h in room temperature (20°C) Accuracy RE [1, 5] [%] | Short-term stability 24 h in room temperature (20°C) Calc. conc. [1, 5] [ng/mL] | CLz/F [2] [µL/min/mg] | Vz/F [2] [L/mg] | AUC(0-t) [2] [ng·h/mL] | AUC(0-inf) [2] [ng·h/mL] | Compound | other results |
| --- | --- | --- | --- | --- | --- | --- | --- | --- | --- | --- | --- | --- | --- | --- | --- | --- | --- | --- | --- | --- | --- |
| −1.74 | 196.52 ± 13.15 | −10.51 | 178.97 ± 6.04 | −7.27 | 185.46 ± 9.39 | 1.92 | 203.84 ± 4.39 | 5.68 | 13.53 ± 0.98 | 1.73 | 13.02 ± 1.17 | 1.70 | 13.02 ± 1.05 | 4.09 | 13.32 ± 1.09 | 495800 ± 401700 | 148.22 ± 76.23 | 1730 ± 883 | 1870 ± 1050 | COc1ccc(CCO[C@@H]2O[C@H](CO[C@@H]3OC[C@H](O)[C@H](O)[C@H]3O)[C@@H](OC(=O)/C=C/c3ccc(O)c(OC)c3)[C@H](O[C@@H]3O[C@@H](C)[C@H](O)[C@@H](O)[C@H]3O)[C@H]2O)cc1O [Angoroside C, angoroside C] | Cmax [2]: 289 ± 124 ng/mL; half-life [2]: 7.4 ± 4.76 h; Tmax [2]: 0.85 ± 0.62 h; CLz/F [3]: 313200 ± 39800 µL/min/mg; Vz/F [3]: 126.00 ± 102.72 L/mg; AUC(0-t) [3]: 1840 ± 298 ng·h/mL; AUC(0-inf) [3]: 1890 ± 226 ng·h/mL; Cmax [3]: 491 ± 239 ng/mL; half-life [3]: 7.33 ± 4.68 h; Tmax [3]: 2.05 ± 1.19 h |
| 7.37 | 5153.93 ± 132.15 | 0.75 | 4835.93 ± 153.29 | 3.51 | 4968.64 ± 208.19 | 9.88 | 5274.04 ± 147.92 | −5.86 | 289.21 ± 13.27 | 1.41 | 311.53 ± 14.38 | −4.67 | 292.85 ± 19.45 | −8.88 | 279.92 ± 15.61 | 97000 ± 44000 | 20.82 ± 11.26 | 5350 ± 1180 | 5400 ± 1240 | C=C[C@H]1[C@H](O[C@@H]2O[C@H](CO)[C@@H](O)[C@H](O)[C@H]2O)OC=C2C(=O)OCC[C@]21O [Swertiamarin, swertiamarin] | Cmax [2]: 1430 ± 636 ng/mL; half-life [2]: 4.43 ± 2.06 h; Tmax [2]: 5 ± 4.97 h; CLz/F [3]: 95000 ± 32200 µL/min/mg; Vz/F [3]: 55.16 ± 45.04 L/mg; AUC(0-t) [3]: 5540 ± 2010 ng·h/mL; AUC(0-inf) [3]: 7240 ± 3390 ng·h/mL; Cmax [3]: 1340 ± 603 ng/mL; half-life [3]: 5.74 ± 1.9 h; Tmax [3]: 0.9 ± 0.64 h |
